The values that follow are results of earlier work, collected in patent publication US10975131B2, “Factor H-Fc immunotheraphy” (priority 2015, dated 2021).

Read-outs that look alike come from different tables or passages of the source.

This data set has as its system N. gonorrhoeae strains.

With `CO/N=C(\C(=O)N[C@@H]1C(=O)N2C(C(=O)O)=C(CSc3nc(=O)c(=O)[nH]n3C)CS[C@H]12)c1csc(N)n1` [Ceftriaxone, ceftriaxone], the “Ceftriaxone MIC” value was 2 (resistant) ug/ml (strain CTXr (Spain), resistant); 0.004 µg/mL (strain FA1090); 2-4 (resistant) ug/ml (strain H041, resistant); 0.032 µg/mL (strain MS11); 0.023 µg/mL (strain NJ-1, agar dilution); 0.047 µg/mL (strain NJ-11, agar dilution). Moreover, the “Ceftriaxone MIC” value is 0.047 µg/mL (strain NJ-15, agar dilution); 0.032 µg/mL (strain NJ-19, agar dilution); 0.032 µg/mL (strain NJ-26, agar dilution); 0.064 µg/mL (strain NJ-27, agar dilution); 0.032 µg/mL (strain NJ-36, agar dilution); 0.125 (elevated ug/ml (strain NJ-44, agar dilution, elevated MIC to CRO). Further, the “Ceftriaxone MIC” value is 0.125 (elevated ug/ml (strain NJ-48, agar dilution, elevated MIC to CRO) and 0.380 (resistant) ug/ml (strain NJ-60, agar dilution, resistant).
